Source: patent US8802597B2, “Herbicidal pyrimidines” (E I du Pont de Nemours and Company, priority 2003, dated 2014)

Columns and labels:
Assay type in all cases: in vivo
[1] = test system: Canada horseweed (Conyza canadensis); assay: Test G pre/postemergence
How it was run: (§1)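 Pre- and postemergence greenhouse test; compound in non-phytotoxic solvent/surfactant mix. Post timing: 2–18 cm plants, 1- to 4-leaf. Visual rating vs controls at 12–21 d, 0 (no effect) to 100 (complete control).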

[2] = test system: sulfonylurea herbicide-resistant (SU-resistant) catchweed bedstraw (GALAP; Galium aparine); assay: Test K postemergence; conditions: 15 days
Description: (§2) Seeds of plant species selected from sulfonylurea herbicide-susceptible (SU-susceptible) and sulfonylurea herbicide-resistant (SU-resistant) catchweed bedstraw (GALAP; Galium aparine) and wheat (TRZAW; Triticum aestivum) were treated with postemergence applications of test chemicals formulated in a non-phytotoxic solvent mixture which included a surfactant. Plants were treated at the 2-3 leaf stage and 2 whorl stage for wheat and catchweed bedstraw, respectively. Treated plants and controls were maintained in a controlled growth environment for 15 days after which time all species were compared to controls and visually evaluated. Plant response ratings, summarized in Table K, are based on a scale of 0 to 100 where 0 is no effect and 100 is complete control. A dash (-) response means no test result.

[3] = test system: sulfonylurea herbicide-susceptible (SU-susceptible) catchweed bedstraw (GALAP; Galium aparine); assay: Test K postemergence; conditions: 15 days
Description: as §2

[4] = test system: wheat (TRZAW; Triticum aestivum); assay: Test K postemergence; conditions: 15 days
Description: as §2

[5] = test system: winter barley (Hordeum vulgare); assay: Test D pre/postemergence; conditions: scale 0 to 100 (100 = complete control)
How it was run: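 Visual injury score, 0–100 (0 = no effect, 100 = complete control), vs untreated controls after 15–25 d in controlled environment. Pre- and postemergence treatments run in parallel; postemergence at 1–4 leaf, 2–18 cm. Compounds in non-phytotoxic solvent with surfactant.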

[6] = test system: Russian thistle (Salsola kali); assay: Test G pre/postemergence
How it was run: as §1

[7] = test system: common groundsel (Senecio vulgaris); assay: Test G pre/postemergence
How it was run: as §1

[8] = test system: grape (Vitus vinifera) vines; assay: Test G post-directed application; conditions: 1500 g ai/ha, scale 0 to 100
Description: (§3) At a different time, established container-grown grape (Vitus vinifera) vines, and olive (Olea europaea) and orange (Citrus sinensis) trees were treated with some of the test chemicals formulated in the same manner and applied to the soil surface and the lower 5 cm of the plant vines or trunks (post-directed application). Plants ranged in height from 30 to 100 cm. The applications were made using a hand sprayer delivering a volume of 990 L/ha. Treated plants and controls were maintained in a greenhouse for 28 days, after which time the treated plants were compared to controls and visually evaluated.
(§4) Plant response ratings, summarized in Table G, are based on a scale of 0 to 100 where 0 is no effect and 100 is complete control. A dash (-) response means no test result.

[9] = test system: olive (Olea europaea) trees; assay: Test G post-directed application; conditions: 900 g ai/ha, scale 0 to 100
Description: as §3, §4

[10] = test system: orange (Citrus sinensis) trees; assay: Test G post-directed application; conditions: 1500 g ai/ha, scale 0 to 100
Description: as §3, §4

[11] = Preemergence, 62 g ai/ha, scale 0-100
[12] = Preemergence, 125 g ai/ha, scale 0-100
[13] = Preemergence, 250 g ai/ha, scale 0-100
[14] = Preemergence, 500 g ai/ha, scale 0 to 100
[15] = Postemergence, 250 g ai/ha, scale 0 to 100
[16] = Postemergence, 16 g ai/ha, scale 0 to 100
[17] = Postemergence, 31 g ai/ha, scale 0 to 100
[18] = Postemergence, 62 g ai/ha, scale 0 to 100
[19] = Postemergence, 125 g ai/ha, scale 0 to 100
[20] = Preemergence, 16 g ai/ha, scale 0-100
[21] = Preemergence, 31 g ai/ha, scale 0-100
[22] = Postemergence, 8 g ai/ha, scale 0 to 100
[23] = Preemergence, 8 g ai/ha, scale 0-100

COC(=O)c1nc(C2CC2)nc(N)c1Cl [Compound 9, methyl 6-amino-5-chloro-2-cyclopropyl-4-pyrimidinecarboxylate]
Plant response rating, Horseweed [1, 11]: 100
Plant response rating, Horseweed [1, 12]: 100
Plant response rating, Horseweed [1, 13]: 100
Plant response rating, Horseweed [1, 14]: 100
Plant response rating (0 to 100 scale) ([2]; 4 g a.i./ha): 100
Plant response rating (0 to 100 scale) ([2]; 8 g a.i./ha): 100
Plant response rating (0 to 100 scale) ([2]; 16 g a.i./ha): 100
Plant response rating (0 to 100 scale) ([2]; 31 g a.i./ha): 100
Plant response rating (0 to 100 scale) ([2]; 62 g a.i./ha): 100
Plant response rating (0 to 100 scale) ([2]; 125 g a.i./ha): 100
Plant response rating (0 to 100 scale) ([3]; 4 g a.i./ha): 75
Plant response rating (0 to 100 scale) ([3]; 8 g a.i./ha): 100
Plant response rating (0 to 100 scale) ([3]; 16 g a.i./ha): 100
Plant response rating (0 to 100 scale) ([3]; 31 g a.i./ha): 100
Plant response rating (0 to 100 scale) ([3]; 62 g a.i./ha): 100
Plant response rating (0 to 100 scale) ([3]; 125 g a.i./ha): 100
Plant response rating (0 to 100 scale) ([4]; 4 g a.i./ha): 0
Plant response rating (0 to 100 scale) ([4]; 8 g a.i./ha): 20
Plant response rating (0 to 100 scale) ([4]; 16 g a.i./ha): 25
Plant response rating (0 to 100 scale) ([4]; 31 g a.i./ha): 38
Plant response rating (0 to 100 scale) ([4]; 62 g a.i./ha): 38
Plant response rating (0 to 100 scale) ([4]; 125 g a.i./ha): 40

Nc1nc(C2CC2)nc(C=O)c1Br [Compound 26]
Plant response rating, Barley ([5]; Postemergence, 125 g ai/ha): 45
Plant response rating, Barley ([5]; Postemergence, 250 g ai/ha): 50
Plant response rating, Barley ([5]; Preemergence, 125 g ai/ha): 25
Plant response rating, Barley ([5]; Preemergence, 250 g ai/ha): 35

Nc1nc(C2CC2)nc(C(=O)OCc2ccccc2)c1Br [Compound 22, phenylmethyl 6-amino-5-bromo-2-cyclopropyl-4-pyrimidinecarboxylate]
Plant response rating, Russian Thistle [6, 15]: 100
Plant response rating, Russian Thistle [6, 16]: 95
Plant response rating, Russian Thistle [6, 17]: 100
Plant response rating, Russian Thistle [6, 18]: 100
Plant response rating, Russian Thistle [6, 19]: 100
Plant response rating, Russian Thistle [6, 20]: 65
Plant response rating, Russian Thistle [6, 21]: 75
Plant response rating, Russian Thistle [6, 11]: 95
Plant response rating, Russian Thistle [6, 12]: 100
Plant response rating, Russian Thistle [6, 13]: 100
Plant response rating, Groundsel [7, 16]: 65
Plant response rating, Groundsel [7, 17]: 65
Plant response rating, Groundsel [7, 18]: 65
Plant response rating, Groundsel [7, 19]: 85
Plant response rating, Groundsel [7, 21]: 0
Plant response rating, Groundsel [7, 13]: 50

COC(=O)c1nc(C2CC2)nc(NO)c1Br [Compound 35]
Plant response rating, Barley ([5]; Postemergence, 62 g ai/ha): 65
Plant response rating, Barley ([5]; Postemergence, 125 g ai/ha): 65
Plant response rating, Barley ([5]; Postemergence, 250 g ai/ha): 70
Plant response rating, Barley ([5]; Preemergence, 62 g ai/ha): 40
Plant response rating, Barley ([5]; Preemergence, 125 g ai/ha): 45
Plant response rating, Barley ([5]; Preemergence, 250 g ai/ha): 45

Nc1nc(C2CC2)nc(C(=O)[O-])c1Cl.[Na+] [Compound 77, 6-amino-5-chloro-2-cyclopropyl-4-pyrimidinecarboxylic acid monosodium salt]
Plant response rating, Horseweed [1, 15]: 80
Plant response rating, Horseweed [1, 16]: 40
Plant response rating, Horseweed [1, 17]: 50
Plant response rating, Horseweed [1, 18]: 75
Plant response rating, Horseweed [1, 19]: 80
Plant response rating, Horseweed [1, 20]: 70
Plant response rating, Horseweed [1, 21]: 90
Plant response rating, Horseweed [1, 11]: 100
Plant response rating, Horseweed [1, 12]: 100
Plant response rating, Horseweed [1, 13]: 100
Plant response rating, Russian Thistle [6, 20]: 85
Plant response rating, Russian Thistle [6, 11]: 100
Plant response rating, Russian Thistle [6, 13]: 100
Plant response rating, Groundsel [7, 15]: 100
Plant response rating, Groundsel [7, 16]: 40
Plant response rating, Groundsel [7, 17]: 75
Plant response rating, Groundsel [7, 18]: 80
Plant response rating, Groundsel [7, 19]: 95
Plant response rating, Groundsel [7, 20]: 50
Plant response rating, Groundsel [7, 21]: 60
Plant response rating, Groundsel [7, 12]: 80
Plant response rating, Groundsel [7, 13]: 100

COC(=O)c1nc(C2CC2C)nc(N)c1Br (stereo not shown) [Compound 28]
Plant response rating, Barley ([5]; Postemergence, 62 g ai/ha): 20
Plant response rating, Barley ([5]; Postemergence, 125 g ai/ha): 40
Plant response rating, Barley ([5]; Postemergence, 250 g ai/ha): 40
Plant response rating, Barley ([5]; Preemergence, 62 g ai/ha): 10
Plant response rating, Barley ([5]; Preemergence, 125 g ai/ha): 25
Plant response rating, Barley ([5]; Preemergence, 250 g ai/ha): 45

CCOC(=O)Cc1nc(C2CC2)nc(N=CN(C)C)c1Br [Compound 33]
Plant response rating, Barley ([5]; Postemergence, 62 g ai/ha): 45
Plant response rating, Barley ([5]; Postemergence, 125 g ai/ha): 45
Plant response rating, Barley ([5]; Postemergence, 250 g ai/ha): 45
Plant response rating, Barley ([5]; Preemergence, 62 g ai/ha): 10
Plant response rating, Barley ([5]; Preemergence, 125 g ai/ha): 35
Plant response rating, Barley ([5]; Preemergence, 250 g ai/ha): 45

CCOC(=O)c1nc(-c2ccc(Cl)cc2)nc(N)c1Cl [Compound 64, ethyl 6-amino-5-chloro-2-(4-chlorophenyl)-4-pyrimidinecarboxylate]
Plant response rating, Horseweed [1, 22]: 60
Plant response rating, Horseweed [1, 16]: 60
Plant response rating, Horseweed [1, 17]: 60
Plant response rating, Horseweed [1, 18]: 60
Plant response rating, Horseweed [1, 23]: 0
Plant response rating, Horseweed [1, 20]: 75
Plant response rating, Horseweed [1, 21]: 95
Plant response rating, Horseweed [1, 11]: 95
Plant response rating, Russian Thistle [6, 23]: 0
Plant response rating, Russian Thistle [6, 21]: 0
Plant response rating, Russian Thistle [6, 11]: 0
Plant response rating, Groundsel [7, 22]: 0
Plant response rating, Groundsel [7, 16]: 0
Plant response rating, Groundsel [7, 17]: 0
Plant response rating, Groundsel [7, 18]: 0
Plant response rating, Groundsel [7, 23]: 0
Plant response rating, Groundsel [7, 20]: 0
Plant response rating, Groundsel [7, 21]: 10
Plant response rating, Groundsel [7, 11]: 40

CCOC(=O)c1nc(C2CC2)nc(N)c1Cl [Compound 4, ethyl 6-amino-5-chloro-2-cyclopropyl-4-pyrimidinecarboxylate]
Plant response rating, Horseweed [1, 11]: 100
Plant response rating, Horseweed [1, 12]: 100
Plant response rating, Horseweed [1, 13]: 100
Plant response rating, Horseweed [1, 14]: 100
Plant response rating, Russian Thistle [6, 12]: 100
Plant response rating, Russian Thistle [6, 13]: 100
Plant response rating, Russian Thistle [6, 14]: 100
Plant response rating, Groundsel [7, 11]: 95
Plant response rating, Groundsel [7, 12]: 95
Plant response rating, Groundsel [7, 13]: 100
Plant response rating, Groundsel [7, 14]: 100
Plant response rating, Grape [8]: 100
Plant response rating, Olive [9]: 50
Plant response rating, Orange [10]: 75
